Experimental data published in patent US11773071B2, “Benzothiazepine compounds and their use as bile acid modulators” (Albireo AB, priority 2019, dated 2023).

Experiments:
[1] = target: T1, Human IBAT (Homo sapiens, UniProt Q12908); assay: IBAT (h/m) assay, human IBAT-overexpressing cells, 3H-taurocholic acid uptake; format: cell-based; conditions: 0.25 μM 3H-taurocholic acid and 5 μM cold taurocholic acid, 20 minutes, read-out: hIBAT IC50
T1 construct: expressed in transfected cells; Puromycin-selected
T1 sequence (Q12908 1-348): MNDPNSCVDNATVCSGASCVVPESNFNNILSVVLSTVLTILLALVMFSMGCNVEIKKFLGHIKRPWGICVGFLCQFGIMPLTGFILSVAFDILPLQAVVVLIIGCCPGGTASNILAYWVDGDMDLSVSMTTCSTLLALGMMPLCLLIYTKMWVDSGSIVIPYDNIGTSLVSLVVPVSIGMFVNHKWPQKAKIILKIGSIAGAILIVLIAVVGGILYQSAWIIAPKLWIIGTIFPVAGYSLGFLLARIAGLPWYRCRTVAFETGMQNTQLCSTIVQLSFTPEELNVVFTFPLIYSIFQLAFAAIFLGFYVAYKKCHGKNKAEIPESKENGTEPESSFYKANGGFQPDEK
Protocol: IBAT (h/m) Assay Protocol
10,000 cells (Human or Mouse IBAT-overexpressing cells) were seeded in 96-wells plate (Corning CLS3809) in 200 μL MEM-alpha medium (Gibco 12571-063) supplemented with 10% FBS (Gibco 10438026) containing Puromycin (Gibco A1113803) (10 μg/mL) and incubated at 37° C. in 5% CO2 for 48 hours. After incubation, media was decanted from the wells and cells were washed two times with 300 μL of basal MEM-alpha medium (FBS-free). After decanting basal MEM-alpha medium each time, plates were tapped against paper towel to ensure maximum removal of residual media. Test inhibitor dilutions (highest test concentration being 10 μM, 3-fold serial dilution, 10 points) prepared in DMSO (Sigma D2650) were added in incubation mix (maintaining 0.2% final DMSO concentration) containing 0.25 μM 3H-taurocholic acid (ARC ART-1368) and 5 μM of cold taurocholic acid (Sigma T4009). 50 μL of incubation mix containing test inhibitors was then added to the wells (in duplicate) and the plates were incubated for 20 minutes in a CO2 incubator at 37° C. After incubation, the reaction was stopped by keeping the plates on ice water mix for 2-3 minutes and then the incubation mix was aspirated completely from the wells. The wells were washed two times with 250 μL of chilled unlabelled 1 mM taurocholic acid dissolved in HEPES (Gibco 15630080)-buffered (10 mM) HBSS (Gibco 14175079) (pH 7.4). The plates were tapped against a paper towel after every wash to ensure maximum removal of blocking buffer.
100 μL of MicroScint-20 (PerkinElmer 6013621) was added to the wells and kept overnight at room temperature before reading the plates in TopCount NXT™ Microplate Scintillation and Luminescence Counter from PerkinElmer under 3H Test protocol (set at 120 seconds reading time per well).
(§1) Preparation of Test Compound Dilutions
(§2) All test compounds were provided in powder form at room temperature. 10 mM DMSO stocks of the test compounds were prepared, aliquoted and stored at −20° C. From the 10 mM DMSO stock of the compounds, a 3-fold serial dilution in DMSO was prepared to get a total of 10 dilutions of the test compounds. 0.5 μL of this dilution in DMSO was added to 250 μL of FBS-free basal media containing 3H-taurocholic acid and cold taurocholic acid to prepare the incubation mixture.

[2] = target: T2, Human LBAT (Homo sapiens, UniProt Q14973); assay: LBAT (h/m) assay, human LBAT-overexpressing cells, 3H-taurocholic acid uptake; format: cell-based; conditions: 0.3 μM 3H-taurocholic acid and 7.5 μM cold taurocholic acid, 20 minutes, read-out: hLBAT IC50
T2 construct: expressed in transfected cells; Geneticin-selected
T2 sequence (Q14973 1-349): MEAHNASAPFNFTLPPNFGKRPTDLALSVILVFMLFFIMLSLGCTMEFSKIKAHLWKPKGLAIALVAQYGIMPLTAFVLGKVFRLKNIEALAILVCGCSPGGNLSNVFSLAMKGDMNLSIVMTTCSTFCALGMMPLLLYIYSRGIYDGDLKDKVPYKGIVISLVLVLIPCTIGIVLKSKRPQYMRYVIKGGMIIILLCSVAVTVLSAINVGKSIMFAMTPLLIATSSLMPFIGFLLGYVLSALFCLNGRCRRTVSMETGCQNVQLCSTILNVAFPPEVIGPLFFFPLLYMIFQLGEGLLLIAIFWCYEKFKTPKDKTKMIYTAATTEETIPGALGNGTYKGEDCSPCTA
Protocol: LBAT (h/m) Assay Protocol
20,000 cells (Human or Mouse LBAT-overexpressing cells) were seeded in 96-wells plate (Corning CLS3809) in 100 μL MEM-alpha medium (Gibco 12571-063) supplemented with 10% FBS (Gibco 10438026) containing Geneticin (Gibco 10131-027) (1 mg/mL) and incubated at 37° C. in 5% CO2 for 24 hours. After incubation, media was decanted from the wells and cells were washed two times with 300 μL of basal MEM-alpha medium (FBS-free). After decanting basal MEM-alpha medium each time, plates were tapped against paper towel to ensure maximum removal of residual media.
For human LBAT, incubation mix was prepared by adding test inhibitor dilutions (3-fold serial dilution in DMSO (Sigma D2650), 10 points) in MEM-alpha (without FBS) containing 0.3 μM 3H-taurocholic acid (ARC ART-1368) and 7.5 μM cold taurocholic acid (Sigma T4009) (maintaining 0.2% final DMSO concentration). For mouse LBAT, incubation mix was prepared by adding test inhibitor dilutions (3-fold serial dilution in DMSO, 10 points) in MEM-alpha (without FBS) containing 0.3 μM 3H-taurocholic acid and 25 μM cold taurocholic acid maintaining 0.2% final DMSO concentration). 50 μL of incubation mix containing test inhibitors was then added to the wells (in duplicate) and the plates were incubated for 20 minutes in a CO2 incubator at 37° C. After incubation, the reaction was stopped by keeping the plates on ice water mix for 2-3 minutes and then the incubation mix was aspirated completely from the wells. The wells were washed two times with 250 μL of chilled unlabelled 1 mM taurocholic acid dissolved in HEPES (Gibco 15630080)-buffered (10 mM) HBSS (Gibco 14175079) (pH 7.4). The plates were tapped against a paper towel after every wash to ensure maximum removal of blocking buffer. 100 μL of MicroScint-20 (PerkinElmer 6013621) was added to the wells and kept overnight at room temperature before reading the plates in TopCount NXT™ Microplate Scintillation and Luminescence Counter from PerkinElmer under 3H Test protocol (set at 120 seconds reading time per well, with normal plate orientation).
as §1, §2

Compound	IC50 [1] [nM]	IC50 [2] [nM]
CCCCC1(C)CN(c2ccccc2)c2cc(SC)c(OCC(C)(O)C(=O)O)cc2S(=O)(=O)C1 (single isomer, unassigned) [33, diastereomer 2]	45	1410
CCCCC1(CC)CN(c2ccccc2)c2cc(SC)c(OCC(C)(F)C(=O)O)cc2S(=O)(=O)C1 (single isomer, unassigned) [35, diastereomer 2]	13	138
CCCCC1(CC)CN(c2ccccc2)c2cc(SC)c(OCC(O)C(=O)O)cc2S(=O)(=O)C1 (single isomer, unassigned) [40, diastereomer 1]	241	1370
CCCCC1(CC)CN(c2ccccc2)c2cc(SC)c(OCC(O)C(=O)O)cc2S(=O)(=O)C1 (single isomer, unassigned) [40, diastereomer 2]	24	513
CCCCC1(CC)CN(c2ccccc2)c2cc(SC)c(OCC(O)C(=O)O)cc2S(=O)(=O)C1 (single isomer, unassigned) [40, diastereomer 3]	2	665
CCCCC1(CC)CN(c2ccccc2)c2cc(SC)c(OCC(O)C(=O)O)cc2S(=O)(=O)C1 (single isomer, unassigned) [40, diastereomer 4]	10	389
CCCCC1(CC)CN(c2ccc(F)cc2)c2cc(SC)c(OCC(O)C(=O)O)cc2S(=O)(=O)C1 (single isomer, unassigned) [42, diastereomer 1]	19	1290
CCCCC1(CC)CN(c2ccc(F)cc2)c2cc(SC)c(OCC(O)C(=O)O)cc2S(=O)(=O)C1 (single isomer, unassigned) [42, diastereomer 2]	36	2310
CCCCC1(CC)CN(c2ccc(F)cc2)c2cc(SC)c(OCC(O)C(=O)O)cc2S(=O)(=O)C1 (single isomer, unassigned) [42, diastereomer 3]	0.5	892
CCCCC1(CC)CN(c2ccc(F)cc2)c2cc(SC)c(OCC(O)C(=O)O)cc2S(=O)(=O)C1 (single isomer, unassigned) [42, diastereomer 4]	1	689
CCCCC1(CC)CN(c2ccccc2)c2cc(OC)c(OCCC(=O)O)cc2S(=O)(=O)C1 (single isomer, unassigned) [44, enantiomer 1]	46	> 20000
CCCCC1(CC)CN(c2ccccc2)c2cc(OC)c(OCCC(=O)O)cc2S(=O)(=O)C1 (single isomer, unassigned) [44, enantiomer 2]	392	> 23000
CCCCC1(CC)CN(c2ccccc2)c2cc(SC)c(OCC(C)(O)C(=O)O)cc2S(=O)(=O)C1 (single isomer, unassigned) [48, diastereomer 1]	56	1190
CCCCC1(CC)CN(c2ccccc2)c2cc(Br)c(OCCC(=O)O)cc2S(=O)(=O)C1 (single isomer, unassigned) [Example 3, 3-((7-bromo-3-butyl-3-ethyl-1,1-dioxido-5-phenyl-2,3,4,5-tetrahydro-1,5-benzothiazepin-8-yl)oxy)propanoic acid]	241	837
CCCCC1(CC)CN(c2ccccc2)c2cc(Cl)c(OCCC(=O)O)cc2S(=O)(=O)C1 (single isomer, unassigned) [Example 7, 3-((3-butyl-7-chloro-3-ethyl-1,1-dioxido-5-phenyl-2,3,4,5-tetrahydro-1,5-benzothiazepin-8-yl)oxy)propanoic acid]	418	969
CCCCC1(CC)CN(c2ccccc2)c2cc(SC)c(OCCC(=O)O)cc2S(=O)(=O)C1 (single isomer, unassigned) [Example 14, 3-((3-butyl-3-ethyl-7-(methylthio)-1,1-dioxido-5-phenyl-2,3,4,5-tetrahydro-1,5-benzothiazepin-8-yl)oxy)propanoic acid]	58	764
